The source made the active and inactive calls. The calls are words filed in the database; no cut-off is given here.
Tests used:
U-266 = assay: Antiproliferative activity against human U-266 cells incubated for 48 hrs by MTS assay; format: functional, cell-based; settings: U-266, 48 h
K562 = assay: Antiproliferative activity against human K562 cells incubated for 48 hrs by MTS assay; format: functional, cell-based; settings: K562, 48 h
OCI-AML2 [1] = assay: Antiproliferative activity against human OCI-AML2 cells incubated for 48 hrs by MTS assay; format: functional, cell-based; settings: OCI-AML2, 48 h
U-937 [2] = assay: Antiproliferative activity against human U-937 cells incubated for 48 hrs by MTS assay; format: functional, cell-based; settings: U-937, 48 h
[3] = molecular target: Eukaryotic peptide chain release factor GTP-binding subunit ERF3A (Homo sapiens) (UniProt P15170); assay: Induction of GSPT1 degradation in human OCI-AML2 cells at 1 uM incubated for 8 hrs by Western blotting analysis; format: cell-based
Sequence of Eukaryotic peptide chain release factor GTP-binding subunit ERF3A (Homo sapiens) (P15170 whole entry): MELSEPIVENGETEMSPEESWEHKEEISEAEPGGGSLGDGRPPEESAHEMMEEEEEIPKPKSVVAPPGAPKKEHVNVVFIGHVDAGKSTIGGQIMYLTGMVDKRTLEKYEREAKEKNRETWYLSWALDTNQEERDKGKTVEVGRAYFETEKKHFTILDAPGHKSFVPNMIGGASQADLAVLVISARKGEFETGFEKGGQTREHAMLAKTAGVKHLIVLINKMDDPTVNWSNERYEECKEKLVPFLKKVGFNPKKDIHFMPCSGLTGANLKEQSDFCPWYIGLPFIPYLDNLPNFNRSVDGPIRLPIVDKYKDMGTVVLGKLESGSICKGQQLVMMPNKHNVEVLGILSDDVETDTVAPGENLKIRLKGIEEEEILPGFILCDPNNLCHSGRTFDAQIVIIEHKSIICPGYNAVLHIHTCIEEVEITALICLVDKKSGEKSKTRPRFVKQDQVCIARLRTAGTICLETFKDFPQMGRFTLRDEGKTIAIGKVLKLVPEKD

[4] = molecular target: T1, Protein cereblon/Eukaryotic peptide chain release factor GTP-binding subunit ERF3A (Homo sapiens) (UniProt Q96SW2+P15170); assay: Induction of CRBN to GSPT1 protein-protein interaction in human U-937 cells at 1 uM pretreated with MG132 for 1 hr followed by compound addition and measured after 8 hrs by immunoprecipitation assay; format: cell-based; settings: filed as activator
T1 sequence (P15170 whole entry, looked up): as the sequence (P15170 whole entry) above
T1 sequence (Q96SW2 whole entry, looked up): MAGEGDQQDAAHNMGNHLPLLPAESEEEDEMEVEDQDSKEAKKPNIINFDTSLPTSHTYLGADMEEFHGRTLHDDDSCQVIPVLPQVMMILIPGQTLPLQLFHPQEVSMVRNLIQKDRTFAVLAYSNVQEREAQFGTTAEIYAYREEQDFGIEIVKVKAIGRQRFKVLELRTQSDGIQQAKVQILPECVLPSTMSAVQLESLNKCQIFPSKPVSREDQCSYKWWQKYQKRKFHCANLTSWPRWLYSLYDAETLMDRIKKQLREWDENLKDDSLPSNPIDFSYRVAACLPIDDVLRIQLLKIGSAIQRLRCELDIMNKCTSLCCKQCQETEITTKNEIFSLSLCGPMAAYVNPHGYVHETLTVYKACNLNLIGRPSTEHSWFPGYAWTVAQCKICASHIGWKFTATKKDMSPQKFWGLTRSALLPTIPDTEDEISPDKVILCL

[5] = molecular target: Eukaryotic peptide chain release factor GTP-binding subunit ERF3A (Homo sapiens) (UniProt P15170); assay: Induction of GSPT1 degradation in human U-937 cells at 1 uM incubated for 8 hrs by Western blotting analysis; format: cell-based
[6] = molecular target: T1, Protein cereblon/Eukaryotic peptide chain release factor GTP-binding subunit ERF3A (Homo sapiens); assay: Induction of CRBN to GSPT1 protein-protein interaction in human U-937 cells at 20 uM pretreated with MG132 for 1 hr followed by compound addition and measured after 8 hrs by immunoprecipitation assay; format: cell-based; settings: filed as activator
OCI-AML2 [7] = assay: Downregulation of CK1alpha in human OCI-AML2 cells at high concentration incubated for 8 hrs by Western blotting analysis; format: functional, cell-based
OCI-AML2 [8] = assay: Upregulation of PARP cleavage in human OCI-AML2 cells at 5 to 20 uM incubated for 24 hrs by Western blotting assay; format: functional, cell-based; settings: dose 5-20 µM
[9] = molecular target: Eukaryotic peptide chain release factor GTP-binding subunit ERF3A (Homo sapiens) (UniProt P15170); assay: Induction of GSPT1 degradation in human U-937 cells at 20 to 40 uM pretreated with MLN4924 followed by compound addition and measured after 8 hrs by Western blotting analysis; format: cell-based; settings: dose 20-40 µM
[10] = molecular target: Protein cereblon (Homo sapiens) (UniProt Q96SW2); assay: Binding affinity to recombinant CRBN (unknown origin) by SPR assay
Sequence of Protein cereblon (Homo sapiens) (Q96SW2 whole entry): as the sequence (Q96SW2 whole entry, looked up) above

OCI-AML2 [11] = assay: Downregulation of IKZF1 in human OCI-AML2 cells at high concentration incubated for 8 hrs by Western blotting analysis; format: functional, cell-based
U-937 [12] = assay: Downregulation of CK1alpha in human U-937 cells at high concentration incubated for 8 hrs by Western blotting analysis; format: functional, cell-based
OCI-AML2 [13] = assay: Induction of cell cycle arrest in human OCI-AML2 cells assessed as increase in G1 phase cells at 5 to 20 uM incubated for 24 hrs by propidium iodide staining based flow cytometry analysis; format: functional; settings: dose 5-20 µM
OCI-AML2 [14] = assay: Induction of apoptosis in human OCI-AML2 cells assessed as increase in number of apoptotic cells at 5 to 20 uM incubated for 48 hrs by Annexin V-FITC/PI staining based flow cytometry analysis; format: functional, cell-based; settings: dose 5-20 µM
OCI-AML2 [15] = assay: Downregulation of c-Myc level in human OCI-AML2 cells at 5 to 20 uM incubated for 24 hrs by Western blotting assay; format: functional, cell-based; settings: dose 5-20 µM
U-937 [16] = assay: Downregulation of GSPT1 in human U-937 cells at high concentration incubated for 8 hrs by Western blotting analysis; format: functional, cell-based
U-937 [17] = assay: Upregulation of caspase 9 level in human U-937 cells at 5 to 20 uM incubated for 24 hrs by Western blotting assay; format: functional, cell-based; settings: dose 5-20 µM
U-937 [18] = assay: Antiproliferative activity against CRBN knockdown human U-937 cells incubated for 48 hrs by MTS assay; format: functional, cell-based
[19] = molecular target: Eukaryotic peptide chain release factor GTP-binding subunit ERF3A (Homo sapiens) (UniProt P15170); assay: Induction of GSPT1 degradation in human OCI-AML2 cells at 20 to 40 uM pretreated with MLN4924 followed by compound addition and measured after 8 hrs by Western blotting analysis; format: cell-based; settings: dose 20-40 µM
U-937 [20] = assay: Induction of apoptosis in human U-937 cells assessed as increase in number of apoptotic cells at 5 to 20 uM incubated for 48 hrs by Annexin V-FITC/PI staining based flow cytometry analysis; format: functional, cell-based; settings: dose 5-20 µM
OCI-AML2 [21] = assay: Induction of cell cycle arrest in human OCI-AML2 cells assessed as decrease in M phase cells at 5 to 20 uM incubated for 24 hrs by propidium iodide staining based flow cytometry analysis; format: functional; settings: dose 5-20 µM
U-937 [22] = assay: Induction of cell cycle arrest in human U-937 cells assessed as increase in G1 phase cells at 5 to 20 uM incubated for 24 hrs by propidium iodide staining based flow cytometry analysis; format: functional; settings: dose 5-20 µM
U-937 [23] = assay: Induction of cell cycle arrest in human U-937 cells assessed as decrease in M phase cells at 5 to 20 uM incubated for 24 hrs by propidium iodide staining based flow cytometry analysis; format: functional; settings: dose 5-20 µM
[24] = molecular target: Eukaryotic peptide chain release factor GTP-binding subunit ERF3A (Homo sapiens) (UniProt P15170); assay: Induction of GSPT1 degradation in human U-937 cells with CHX pretreatment by Western blotting analysis; format: cell-based; settings: dose 20-40 µM
[25] = molecular target: Eukaryotic peptide chain release factor GTP-binding subunit ERF3A (Homo sapiens) (UniProt P15170); assay: Induction of GSPT1 degradation in human U-937 cells at 20 to 40 uM pretreated with MG132 for 1 hr followed by compound addition and measured after 8 hrs by Western blotting analysis; format: cell-based; settings: dose 20-40 µM
OCI-AML2 [26] = assay: Downregulation of GSPT1 in human OCI-AML2 cells at high concentration incubated for 8 hrs by Western blotting analysis; format: functional, cell-based
[27] = molecular target: Eukaryotic peptide chain release factor GTP-binding subunit ERF3A (Homo sapiens) (UniProt P15170); assay: Induction of GSPT1 degradation in human HEK293FT cells at 20 to 40 uM pretreated with MLN4924 for 1 hr followed by compound addition and measured after 8 hrs by Western blotting analysis; format: cell-based; settings: dose 20-40 µM
U-937 [28] = assay: Downregulation of IKZF1 in human U-937 cells at high concentration incubated for 8 hrs by Western blotting analysis; format: functional, cell-based
U-937 [29] = assay: Downregulation of c-Myc level in human U-937 cells at 5 to 20 uM incubated for 24 hrs by Western blotting assay; format: functional, cell-based; settings: dose 5-20 µM
U-937 [30] = assay: Upregulation of PARP cleavage in human U-937 cells at 5 to 20 uM incubated for 24 hrs by Western blotting assay; format: functional, cell-based; settings: dose 5-20 µM
OCI-AML2 [31] = assay: Upregulation of caspase 9 level in human OCI-AML2 cells at 5 to 20 uM incubated for 24 hrs by Western blotting assay; format: functional, cell-based; settings: dose 5-20 µM
[32] = molecular target: T1, Protein cereblon/Eukaryotic peptide chain release factor GTP-binding subunit ERF3A (Homo sapiens); assay: Binding affinity to CRBN/GSPT1 in human U-937 cells assessed as increase in protein stabilization incubated for 6 hrs by CETSA; format: cell-based; settings: filed as activator
OCI-AML2 [33] = assay: Antiproliferative activity against GSPT1 knockout human OCI-AML2 cells incubated for 48 hrs by MTS assay; format: functional, cell-based
U-937 [34] = assay: Upregulation of p21 level in human U-937 cells at 5 to 20 uM incubated for 24 hrs by Western blotting assay; format: functional, cell-based; settings: dose 5-20 µM
OCI-AML2 [35] = assay: Upregulation of p21 level in human OCI-AML2 cells at 5 to 20 uM incubated for 24 hrs by Western blotting assay; format: functional, cell-based; settings: dose 5-20 µM
OCI-AML2 [36] = assay: Downregulation of IKZF1 in human OCI-AML2 cells incubated for 8 hrs by Western blotting analysis; format: functional, cell-based; settings: dose 5-40 µM
U-937 [37] = assay: Downregulation of GSPT1 in human U-937 cells incubated for 8 hrs by Western blotting analysis; format: functional, cell-based; settings: dose 5-40 µM
OCI-AML2 [38] = assay: Downregulation of GSPT1 in human OCI-AML2 cells incubated for 8 hrs by Western blotting analysis; format: functional, cell-based; settings: dose 5-40 µM
[39] = molecular target: Eukaryotic peptide chain release factor GTP-binding subunit ERF3A (Homo sapiens) (UniProt P15170); assay: Induction of GSPT1 degradation in human OCI-AML2 cells at 10 uM incubated for 8 hrs by Western blotting analysis; format: cell-based
OCI-AML2 [40] = assay: Downregulation of CK1alpha in human OCI-AML2 cells incubated for 8 hrs by Western blotting analysis; format: functional, cell-based; settings: dose 5-40 µM
U-937 [41] = assay: Downregulation of IKZF1 in human U-937 cells incubated for 8 hrs by Western blotting analysis; format: functional, cell-based; settings: dose 5-40 µM
[42] = molecular target: Eukaryotic peptide chain release factor GTP-binding subunit ERF3A (Homo sapiens) (UniProt P15170); assay: Induction of GSPT1 degradation in human U-937 cells at 10 uM incubated for 8 hrs by Western blotting analysis; format: cell-based
U-937 [43] = assay: Downregulation of CK1alpha in human U-937 cells incubated for 8 hrs by Western blotting analysis; format: functional, cell-based; settings: dose 5-40 µM

## Cc1ccc2nc(C)c(C(=O)N/N=C/c3cccc([N+](=O)[O-])c3)cc2c1
U-266
  IC50: > 40 µM
K562
  IC50: > 40 µM
OCI-AML2 [1]
  IC50: > 40 µM
U-937 [2]
  IC50: > 40 µM

## Cc1nc2ccccc2cc1C(=O)N/N=C/c1cccc([N+](=O)[O-])c1
U-266
  IC50: > 40 µM
K562
  IC50: > 40 µM
OCI-AML2 [1]
  IC50: > 40 µM
U-937 [2]
  IC50: > 40 µM

## COc1ccc2ccccc2c1/C=N/NC(=O)c1cc2cccc(C)c2nc1C
U-266
  IC50: > 40 µM
K562
  IC50: > 40 µM
OCI-AML2 [1]
  IC50: > 40 µM
U-937 [2]
  IC50: > 40 µM

## Cc1nc2c(C)cccc2cc1C(=O)N/N=C/c1c(C)[nH]c2ccccc12
U-266
  IC50: 17.4 µM
K562
  IC50: 11.1 µM
OCI-AML2 [1]
  IC50: 10.4 µM
U-937 [2]
  IC50: 20 µM

## Cc1ccc2nc(C)c(C(=O)N/N=C/c3cccc(O)c3)cc2c1
U-266
  IC50: > 40 µM
K562
  IC50: > 40 µM
OCI-AML2 [1]
  IC50: > 40 µM
U-937 [2]
  IC50: > 40 µM

## Cc1nc2ccccc2cc1C(=O)N/N=C/c1cccc(Cl)c1
U-266
  IC50: > 40 µM
K562
  IC50: > 40 µM
OCI-AML2 [1]
  IC50: > 40 µM
U-937 [2]
  IC50: > 40 µM

## O=C1CCC(N2Cc3cc(CNC(=O)C(F)(F)c4ccc(Cl)cc4)ccc3C2=O)C(=O)N1 (stereo unspecified)
U-266
  IC50: 0.04 µM
K562
  IC50: > 40 µM
[3]
  Activity: Active
[4]
  Activity: Active
OCI-AML2 [1]
  IC50: 0.01 µM
[5]
  Activity: Active
U-937 [2]
  IC50: < 0.032 µM

## Cc1nc2c(C)cccc2cc1C(=O)N/N=C/c1cccnc1
U-266
  IC50: 26.6 µM
K562
  IC50: > 40 µM
OCI-AML2 [1]
  IC50: 15.6 µM
U-937 [2]
  IC50: > 40 µM

## Cc1nc2c(C)cccc2cc1C(=O)N/N=C/c1ccccc1O
[6]
  Activity: Active
U-266
  IC50: 3.8 µM
OCI-AML2 [7]
  Activity: Active
OCI-AML2 [8]
  Activity: Active
[9]
  Activity: inactive
[10]
  Activity: Active
OCI-AML2 [11]
  Activity: Active
K562
  IC50: 16.7 µM
U-937 [12]
  Activity: Active
OCI-AML2 [13]
  Activity: Active
OCI-AML2 [14]
  Activity: Active
OCI-AML2 [15]
  Activity: Active
U-937 [16]
  Activity: Active
U-937 [17]
  Activity: Active
OCI-AML2 [1]
  IC50: 2.64 µM
U-937 [18]
  Activity: inactive
[19]
  Activity: inactive
U-937 [20]
  Activity: Active
OCI-AML2 [21]
  Activity: Active
U-937 [22]
  Activity: Active
U-937 [23]
  Activity: Active
[24]
  Activity: Dose-Dependent Effect
[25]
  Activity: inactive
OCI-AML2 [26]
  Activity: Active
[27]
  Activity: inactive
U-937 [28]
  Activity: Active
U-937 [29]
  Activity: Active
U-937 [30]
  Activity: Active
OCI-AML2 [31]
  Activity: Active
[32]
  Activity: Active
OCI-AML2 [33]
  Activity: inactive
U-937 [2]
  IC50: 4.49 µM
U-937 [34]
  Activity: Active
OCI-AML2 [35]
  Activity: Active

## Cc1nc2c(C)cccc2cc1C(=O)N/N=C/c1cccc(O)c1
U-266
  IC50: 17.7 µM
OCI-AML2 [36]
  Activity: Dose-Dependent Effect
K562
  IC50: 19.4 µM
U-937 [37]
  Activity: Dose-Dependent Effect
OCI-AML2 [38]
  Activity: Dose-Dependent Effect
OCI-AML2 [1]
  IC50: 17.2 µM
[39]
  Activity: Active
OCI-AML2 [40]
  Activity: Dose-Dependent Effect
U-937 [41]
  Activity: Dose-Dependent Effect
[42]
  Activity: Active
U-937 [2]
  IC50: 22.6 µM
U-937 [43]
  Activity: Dose-Dependent Effect
